According to ChEMBL document CHEMBL3879908, “Pyrrolidinone carboxamide derivatives” (2014):

These compounds were tested against T1, Chemerin-like receptor 1 (Homo sapiens, UniProt Q99788) (assay: Displacement of [125I]-chemerin from ChemR23 (unknown origin) transfected in mouse BaF3 cells after 3 hrs by scintillation counting method).
T1 sequence (Q99788 whole entry): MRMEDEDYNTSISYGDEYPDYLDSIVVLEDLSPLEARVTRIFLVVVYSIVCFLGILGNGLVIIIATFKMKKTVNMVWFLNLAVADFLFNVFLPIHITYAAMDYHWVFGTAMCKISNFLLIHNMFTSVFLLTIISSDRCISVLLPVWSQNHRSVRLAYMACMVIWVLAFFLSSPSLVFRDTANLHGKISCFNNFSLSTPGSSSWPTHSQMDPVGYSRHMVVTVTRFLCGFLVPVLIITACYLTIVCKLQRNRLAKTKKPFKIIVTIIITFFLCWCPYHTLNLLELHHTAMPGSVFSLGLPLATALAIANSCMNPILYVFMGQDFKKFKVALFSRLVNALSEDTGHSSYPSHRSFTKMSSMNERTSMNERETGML
Assay type: cell-based

Structure (SMILES) | IC50
Cc1cccc(C)c1N1C[C@@](CN(C)CCCCF)(C(=O)Nc2cc(C(F)(F)F)cc(C(F)(F)F)c2)[C@H](C)C1=O | ≤ 30 nM
Cc1cccc(C)c1N1C[C@@](CN(C)C2CCC2)(C(=O)Nc2cc(OC(C)C)cc(C(F)(F)F)c2)[C@H](C)C1=O | 30 to 300 nM
Cc1cccc(C)c1N1CC(C(=O)Nc2cc(C(F)(F)F)cc(C(F)(F)F)c2)(N2CCCC2)CC1=O (stereo unspecified) | ≤ 30 nM
Cc1cccc(C)c1N1CC(CO)(C(=O)Nc2cc(C(F)(F)F)cc(C(F)(F)F)c2)CC1=O (stereo unspecified) | 30 to 300 nM
Cc1cccc(C)c1N1C[C@@](CN2CCC(F)(F)CC2)(C(=O)Nc2cc(Cl)cc(C(F)(F)F)c2)[C@H](C)C1=O | 30 to 300 nM
COc1cccc(C)c1N1CC(C(=O)Nc2cc(C(F)(F)F)cc(C(F)(F)F)c2)(C(C)C)CC1=O (stereo unspecified) | 300 to 6000 nM
CCN(C)C[C@@]1(C(=O)Nc2cc(C3CC3)cc(C(F)(F)F)c2)CN(c2c(C)cccc2C)C(=O)[C@H]1C | 30 to 300 nM
Cc1cccc(C)c1N1CC2(C(=O)Nc3cc(C(F)(F)F)cc(C(F)(F)F)c3)COC=CC2C1=O (stereo unspecified) | ≤ 30 nM
Cc1cccc(C)c1N1CC2(C(=O)Nc3cc(C(F)(F)F)cc(C(F)(F)F)c3)C[C@H](F)CC2C1=O (stereo partly specified) | ≤ 30 nM
Cc1cccc(C)c1N1C[C@@](CC(C)C)(C(=O)Nc2cc(C(F)(F)F)cc(C(F)(F)F)c2)[C@H](C)C1=O | ≤ 30 nM
C=Cc1ccccc1N1CC(C(=O)Nc2cc(C(F)(F)F)cc(C(F)(F)F)c2)(C(C)C)CC1=O (stereo unspecified) | 30 to 300 nM
Cc1cccc(C)c1N1C[C@@](CN2CCOCC2)(C(=O)Nc2cc(C3CC3)cc(C(F)(F)F)c2)[C@H](C)C1=O | 30 to 300 nM
Cc1cccc(C)c1N1CC(CN2CCCC2)(C(=O)Nc2cc(C(F)(F)F)cc(C(F)(F)F)c2)CC1=O (stereo unspecified) | 300 to 6000 nM
Cc1cccc(C)c1N1C[C@](C(=O)Nc2cc(C#N)cc(C(F)(F)F)c2)(C(C)C)CC1=O | ≤ 30 nM
Cc1cccc(C)c1N1C[C@@](CN(C)C)(C(=O)Nc2cc(C#N)cc(C(F)(F)F)c2)[C@H](C)C1=O | ≤ 30 nM
Cc1cccc(C)c1N1CC(C(=O)Nc2cc(N3CCCCC3)cc(C(F)(F)F)c2)CC1=O (stereo unspecified) | 30 to 300 nM
CC[C@@H]1C(=O)N(c2c(C)cccc2C)C[C@@]1(CC)C(=O)Nc1cc(C(F)(F)F)cc(C(F)(F)F)c1 | ≤ 30 nM
C=CCC1C(=O)N(c2c(C)cccc2C)CC1(CC=C)C(=O)Nc1cc(C(F)(F)F)cc(C(F)(F)F)c1 (stereo unspecified) | ≤ 30 nM
Cc1cccc(CCN2CCOCC2)c1N1CC(C(=O)Nc2cc(C(F)(F)F)cc(C(F)(F)F)c2)(C(C)C)CC1=O (stereo unspecified) | 300 to 6000 nM
COCCN(C)C[C@@]1(C(=O)Nc2cc(C#N)cc(C(F)(F)F)c2)CN(c2c(C)cccc2C)C(=O)[C@H]1C | 30 to 300 nM
Cc1cccc(C)c1N1C[C@@](CN(C)CC2CCC2)(C(=O)Nc2cc(C(F)(F)F)cc(C(F)(F)F)c2)[C@H](C)C1=O | 30 to 300 nM
Cc1cccc(C)c1N1C[C@](C(=O)Nc2cc(OC(C)C)cc(C(F)(F)F)c2)(C(C)C)CC1=O | ≤ 30 nM
Cc1ccccc1N1CC(C(=O)Nc2cc(C(F)(F)F)cc(C(F)(F)F)c2)(C(C)C)CC1=O (stereo unspecified) | ≤ 30 nM
Cc1cccc(C)c1N1CC2(C(=O)Nc3cc(C(F)(F)F)cc(C(F)(F)F)c3)COCC2C1=O (stereo unspecified) | 30 to 300 nM
Cc1cccc(C)c1N1CC(C(=O)Nc2cc(C(F)(F)F)cc(C(F)(F)F)c2)(C2=CCS(=O)(=O)CC2)CC1=O (stereo unspecified) | 30 to 300 nM
CCCC[C@@]1(C(=O)Nc2cc(C(F)(F)F)cc(C(F)(F)F)c2)CN(c2c(C)cccc2C)C(=O)[C@H]1C | ≤ 30 nM

Structure (SMILES) | IC50
CCc1cccc(C)c1N1CC(C(=O)Nc2ccc(C)c(C(F)(F)F)c2)CC1=O (stereo unspecified) | 300 to 6000 nM
Cc1cccc(C)c1N1C[C@](C(=O)Nc2cc(C(F)(F)F)cc(C(F)(F)F)c2)(C2CCOCC2)[C@H](C)C1=O | ≤ 30 nM
CCc1ccccc1N1CC(C(=O)Nc2cc(C(F)(F)F)cc(C(F)(F)F)c2)CC1=O (stereo unspecified) | 30 to 300 nM
Cc1cccc(C)c1N1C[C@](C(=O)Nc2cc(C(F)(F)F)cc(C(F)(F)F)c2)(C2CCOCC2)[C@@H](C)C1=O | 30 to 300 nM
CC(C)C1(C(=O)Nc2cc(C(F)(F)F)cc(C(F)(F)F)c2)CC(=O)N(c2ccccc2CN2CCOCC2)C1 (stereo unspecified) | 300 to 6000 nM
Cc1cccc(S(C)(=O)=O)c1N1CC(C(=O)Nc2cc(C(F)(F)F)cc(C(F)(F)F)c2)CC1=O (stereo unspecified) | 300 to 6000 nM
Cc1cccc(C)c1N1CC(C(=O)Nc2cc(N3CCOCC3)cc(C(F)(F)F)c2)CC1=O (stereo unspecified) | 30 to 300 nM
Cc1cccc(Cl)c1N1CC(C(=O)Nc2cc(C(F)(F)F)cc(C(F)(F)F)c2)CC1=O (stereo unspecified) | 30 to 300 nM
CCc1cccc(C)c1N1CC(C(=O)Nc2cc(C(F)(F)F)cc(C(F)(F)F)c2)CC1=O (stereo unspecified) | ≤ 30 nM
Cc1cccc(C)c1N1CC(CN(C)C)(C(=O)Nc2cc(C(F)(F)F)cc(C(F)(F)F)c2)CC1=O (stereo unspecified) | 30 to 300 nM
CCC1(C(=O)Nc2cc(C(F)(F)F)cc(C(F)(F)F)c2)CC(=O)N(c2ccccc2OC)C1 (stereo unspecified) | 300 to 6000 nM
CC[C@@]1(C(=O)Nc2cc(C(F)(F)F)cc(C(F)(F)F)c2)CC(=O)N(c2c(C)cccc2C)C1 | 30 to 300 nM
CC[C@@]1(C(=O)Nc2cc(N3CCCC3)cc(C(F)(F)F)c2)CN(c2c(C)cccc2C)C(=O)[C@H]1C | 30 to 300 nM
Cc1cccc(C)c1N1C[C@]2(C(=O)Nc3cc(C(F)(F)F)cc(C(F)(F)F)c3)CCO[C@@H]2C1=O | ≤ 30 nM
Cc1ccccc1N1CC(C(=O)Nc2cccc(C(F)(F)F)c2)CC1=O (stereo unspecified) | 300 to 6000 nM
Cc1cccc(C)c1N1CC2(C(=O)Nc3cc(C(F)(F)F)cc(C(F)(F)F)c3)CCCCC2C1=O (stereo unspecified) | 30 to 300 nM
CC(C)c1ccccc1N1CC(C(=O)Nc2cc(C(F)(F)F)cc(C(F)(F)F)c2)CC1=O (stereo unspecified) | 30 to 300 nM
CCc1cccc(C)c1N1CC(C(=O)Nc2ccc(F)c(C(F)(F)F)c2)CC1=O (stereo unspecified) | 300 to 6000 nM
Cc1cccc(C)c1N1C[C@@](CN2CCO[C@H](C)C2)(C(=O)Nc2cc(C#N)cc(C(F)(F)F)c2)[C@H](C)C1=O | 30 to 300 nM
Cc1cccc(C)c1N1C[C@@](CN2CCC(F)CC2)(C(=O)Nc2cc(C3CC3)cc(C(F)(F)F)c2)[C@H](C)C1=O | 30 to 300 nM
CCC1(C(=O)Nc2cccc(C(F)(F)F)c2)CC(=O)N(c2c(C)cccc2C)C1 (stereo unspecified) | 300 to 6000 nM
Cc1cccc(C)c1N1C[C@@](CN(C)CC(F)(F)F)(C(=O)Nc2cc(C(F)(F)F)cc(C(F)(F)F)c2)[C@H](C)C1=O | ≤ 30 nM
Cc1cccc(C)c1N1CC(C(=O)Nc2cc(F)cc(F)c2)CC1=O (stereo unspecified) | 300 to 6000 nM
CC[C@@]1(C(=O)Nc2cc(OC3CCCC3)cc(C(F)(F)F)c2)CN(c2c(C)cccc2C)C(=O)[C@H]1C | ≤ 30 nM
Cc1cccc(C)c1N1C[C@](C(=O)Nc2cc(C(F)(F)F)cc(C(F)(F)F)c2)(C(C)C)[C@H](C)C1=O | 30 to 300 nM
Cc1cccc(C)c1N1CC(C(=O)Nc2cccc(Cl)c2)CC1=O (stereo unspecified) | 300 to 6000 nM

Structure (SMILES) | IC50
COCC(C)(C)N(C)C[C@@]1(C(=O)Nc2cc(C(F)(F)F)cc(C(F)(F)F)c2)CN(c2c(C)cccc2C)C(=O)[C@H]1C | ≤ 30 nM
Cc1cccc(C)c1N1C[C@@](CN2CCCCC2)(C(=O)Nc2cc(C#N)cc(C(F)(F)F)c2)[C@H](C)C1=O | ≤ 30 nM
CC[C@@]1(C(=O)Nc2cc(OC(C)C)cc(C(F)(F)F)c2)CN(c2c(C)cccc2C)C(=O)[C@H]1C | ≤ 30 nM
Cc1cccc(C)c1N1CC(C(=O)Nc2cc(C(F)(F)F)cc(C(F)(F)F)c2)(C2=CCSCC2)CC1=O (stereo unspecified) | ≤ 30 nM
COc1cccc(C)c1N1CC(C(=O)Nc2cc(F)cc(F)c2)CC1=O (stereo unspecified) | 30 to 300 nM
CC[C@@]1(C(=O)Nc2cc(CN3CCOCC3)cc(C(F)(F)F)c2)CN(c2c(C)cccc2C)C(=O)[C@H]1C | 300 to 6000 nM
CCN(C[C@@]1(C(=O)Nc2cc(C(F)(F)F)cc(C(F)(F)F)c2)CN(c2c(C)cccc2C)C(=O)[C@H]1C)C(C)C | ≤ 30 nM
C=CCc1cccc(C)c1N1CC(C(=O)Nc2cc(C(F)(F)F)cc(C(F)(F)F)c2)(C(C)C)CC1=O (stereo unspecified) | ≤ 30 nM
Cc1cccc(C)c1N1CC(C(=O)Nc2cc(C#N)cc(C(F)(F)F)c2)CC1=O (stereo unspecified) | 30 to 300 nM
CC[C@@]1(C(=O)Nc2cc(C(F)(F)F)cc(C(F)(F)F)c2)CN(c2c(C)cccc2C)C(=O)[C@H]1OC | ≤ 30 nM
Cc1cccc(C)c1N1CC(C(=O)Nc2cc(C3CC3)cc(C(F)(F)F)c2)CC1=O (stereo unspecified) | 300 to 6000 nM
Cc1cccc(C)c1N1CC2(C(=O)Nc3cc(C(F)(F)F)cc(C(F)(F)F)c3)C[C@@H](F)CC2C1=O (stereo partly specified) | 30 to 300 nM
CC(C)C1(C(=O)Nc2cc(C(F)(F)F)cc(C(F)(F)F)c2)CC(=O)N(c2ccccc2Cl)C1 (stereo unspecified) | 30 to 300 nM
CCCC1(C(=O)Nc2cc(C(F)(F)F)cc(C(F)(F)F)c2)CC(=O)N(c2c(C)cccc2C)C1 (stereo unspecified) | ≤ 30 nM
Cc1cccc(C)c1N1CC(C(=O)Nc2cc(C(F)(F)F)cc(C(F)(F)F)c2)(N(C)C)CC1=O (stereo unspecified) | ≤ 30 nM
CO[C@@H]1CC2C(=O)N(c3c(C)cccc3C)CC2(C(=O)Nc2cc(C(F)(F)F)cc(C(F)(F)F)c2)C1 (stereo partly specified) | ≤ 30 nM
Cc1cccc(C)c1N1C[C@@](CN(CCF)CCF)(C(=O)Nc2cc(C(F)(F)F)cc(C(F)(F)F)c2)[C@H](C)C1=O | ≤ 30 nM
Cc1cccc(C)c1N1CC(CN2CCCC2)(C(=O)Nc2cc(C3CC3)cc(C(F)(F)F)c2)CC1=O (stereo unspecified) | ≤ 30 nM
CCC[C@@]1(C(=O)Nc2cc(C(F)(F)F)cc(C(F)(F)F)c2)CN(c2c(C)cccc2C)C(=O)[C@H]1C | ≤ 30 nM
Cc1cccc(C)c1N1C[C@@](CN(C)CC2CC2)(C(=O)Nc2cc(C(F)(F)F)cc(C(F)(F)F)c2)[C@H](C)C1=O | ≤ 30 nM
Cc1cccc(C)c1N1C[C@@](CN2CCOCC2)(C(=O)Nc2cc(C#N)cc(C(F)(F)F)c2)[C@H](C)C1=O | 30 to 300 nM
Cc1cccc(C)c1N1CC2(C(=O)Nc3cc(C(F)(F)F)cc(C(F)(F)F)c3)CC(N3CCCC3)CC2C1=O (stereo unspecified) | 30 to 300 nM
Cc1cccc(C)c1N1CC(C(=O)Nc2cc(C(F)(F)F)cc(C(F)(F)F)c2)(C2=CCN(C(=O)OC(C)(C)C)CC2)CC1=O (stereo unspecified) | ≤ 30 nM
CCCN(CC)C[C@@]1(C(=O)Nc2cc(C(F)(F)F)cc(C(F)(F)F)c2)CN(c2c(C)cccc2C)C(=O)[C@H]1C | ≤ 30 nM
